{"source": "patent US10780080B2", "about": "“Benzamide and active compound compositions and methods of use” (TRANSLATIONAL DRUG DEVELOPMENT, LLC, priority 2016, dated 2020)", "key": {"[1]": {"settings": "solvents named in the value; cited from earlier work"}, "cancer cell models": {"system": "cancer cell models", "settings": "literature reports; cited from earlier work"}, "[2]": {"system": "human acute leukemia cell line (HL-60)", "assay": "CellTiter-Glo cell viability assay, single agent growth inhibition", "format": "cell-based", "settings": "HL-60, 72 hours treatment", "description": "Cell viability in the presence of varying concentrations of the benzamide compounds at different time points was used to assess cytotoxicity and the effect of the compounds on cell proliferation.\nCell Viability Assay-Cell viability was measured by the CellTiter-Glo® cell viability assay Promega (Madison, Wis.). The CellTiter-Glo® Luminescent Cell Viability Assay is a homogeneous method to determine the number of viable cells in culture based on quantitation of the ATP present, which signals the presence of metabolically active cells. Following treatment, CellTiter-Glo® is added to treatment wells and incubated at 37° C. luminescence values were measured at using a Molecular Devices Spectramax microplate reader.\nSingle Agent Studies—Cells were grown to 70% confluency, trypsinized, counted, and seeded in 96 well flat-bottom plates at a final concentration of 2.5×10^3-5×10^3 cells/well (Day 0). Cells were allowed to incubate in growth media for 24 hours to allow for maximum adhesion. Treatment with the test agents or standard agents began on Day 1 and continued for 72 hours. At the 72-hour time point, treatment containing media was removed. Viable cell numbers are quantified by the CellTiter-Glo® cell viability assay as described above. Experiments were run with triplicate concentrations to determine growth inhibitory activity. Results from these studies were used to calculate an IC50 value (concentration of drug that inhibits cell growth by 50 percent of control) for each compound.\nData Collection—For single agent and combination studies, data from each experiment was collected and expressed as % Cell Growth using the following calculation: % Cell Growth=(ftest/fvehicle)×100\nWhere ftest is the luminescence of the tested sample, and fvehicle is the luminescence of the vehicle in which the drug is dissolved. Dose response graphs and IC50 values were generated using Prism 6 software (GraphPad)."}, "[3]": {"system": "intratumoral CD8 T-cells and natural killer cells", "assay": "Intratumoral immune cells in tumor bearing mice", "format": "in vivo"}, "CT-26 murine colon tumor": {"system": "CT-26 murine colon tumor", "assay": "CT-26 tumor volume growth, ID #24 and anti-4-1BB", "format": "in vivo", "settings": "Anti-m4-1BB 0.05 mg/kg IP QDx1, in mm³"}}, "note": "Several values for one entry are separate records, joined by “and”; a condition that tells them apart may be missing. Equal values may be shown once. Entries after “also recorded” stand apart in the source; their conditions may differ.", "data": [{"smiles": "Nc1ncn([C@@H]2O[C@H](CO)[C@@H](O)[C@H]2O)c(=O)n1", "note": "[Azacitidine, 4-amino-1-β-D-ribofuranozyl-s-triazin-2(1H)-one]", "values": [{"measurement": "solubility", "setting": "[1]", "value": "insoluble in acetone, ethanol and methyl ketone; also recorded: slightly soluble in ethanol/water (50/50), propylene glycol and polyethylene glycol; also recorded: sparingly soluble in water, water-saturated octanol, 5% dextrose in water, N-methyl-2-pyrrolidone, normal saline and 5% Tween 80 in water; also recorded: soluble in dimethylsulfoxide (DMSO)"}]}, {"smiles": "Nc1ncn([C@H]2C[C@H](O)[C@@H](CO)O2)c(=O)n1", "note": "[Decitabine, 4-amino-1-(2-deoxy-β-D-erythro-pentofuranosyl)-1,3,5-triazin-2(1H)one]", "values": [{"measurement": "effects on cancer cells", "setting": "cancer cell models", "value": "suppression of growth and apoptosis; also recorded: causes G2 arrest, reduces clonogenic survival, and inhibits growth in cells"}, {"measurement": "solubility", "setting": "[1]", "value": "slightly soluble in ethanol/water (50/50), methanol/water (50/50) and methanol; also recorded: sparingly soluble in water; also recorded: soluble in dimethylsulfoxide (DMSO)"}]}, {"smiles": "O=C(NO)c1ccc(Nc2nc3ccccc3n2C2CCCCCC2)cc1", "note": "[ID #26, 4-(1-cycloheptyl-1H-benzo[d]imidazol-2-ylamino)-N-hydroxybenzamide]", "values": [{"measurement": "IC50", "setting": "[2]", "value": 660, "unit": "nM"}]}, {"smiles": "O=C(NO)c1ccc(Nc2nc3ccccc3n2CC2CCCCC2)cc1", "note": "[ID #24, 4-(1-(cyclohexylmethyl)-1H-benzo[d]imidazol-2-ylamino)-N-hydroxybenzamide]", "values": [{"measurement": "IC50", "setting": "[2]", "value": 1150, "unit": "nM"}, {"measurement": "numbers of intratumoral CD8 T-cells and natural killer cells", "setting": "[3]", "value": "increased numbers of intratumoral CD8 T-cells and natural killer cells"}, {"measurement": "tumor volume, individual animal (ID 001-005)", "setting": "CT-26 murine colon tumor; Day 1, Example #24 150.00 mg/kg PO QD to end", "value": 85}, {"measurement": "tumor volume, individual animal (ID 001-005)", "setting": "CT-26 murine colon tumor; Day 5, Example #24 150.00 mg/kg PO QD to end", "value": 73}, {"measurement": "tumor volume, individual animal (ID 001-005)", "setting": "CT-26 murine colon tumor; Day 8, Example #24 150.00 mg/kg PO QD to end", "value": 65}, {"measurement": "tumor volume, individual animal (ID 001-005)", "setting": "CT-26 murine colon tumor; Day 9, Example #24 150.00 mg/kg PO QD to end", "value": 65}, {"measurement": "tumor volume, individual animal (ID 001-005)", "setting": "CT-26 murine colon tumor; Day 12, Example #24 150.00 mg/kg PO QD to end", "value": "68 and 590"}, {"measurement": "tumor volume, individual animal (ID 001-005)", "setting": "CT-26 murine colon tumor; Day 14, Example #24 150.00 mg/kg PO QD to end", "value": 67}]}, {"smiles": "O=C(NO)c1ccc(Nc2nc3ccccc3n2C2CCCCC2)cc1", "note": "[ID #25, 4-(1-cyclohexyl-1H-benzo[d]imidazol-2-ylamino)-N-hydroxybenzamide]", "values": [{"measurement": "IC50", "setting": "[2]", "value": 3900, "unit": "nM"}]}]}
